Results on 12 compounds are retold here after patent EP0652769B1, “VACCINES AGAINST METAZOAN PARASITES” (MALLINCKRODT VETERINARY, INC., priority 1992, dated 1994).

Assay [1] concerns H-gal-GP. Description: Azocasein proteolysis by H-gal-GP at pH 7 with a panel of proteinase inhibitors (neutral endopeptidase-like activity). It is filed as biochemical, H.contortus. To be noted: inhibitor 1mM, overnight at 37°C. Here is the method: Proteinase activity was determined using azocasein as substrate in a microassay system. H-gal-GP (approximately 5ug in 20µl) was preincubated for 3Omin at 37°C with 2OOµl sterile 0.1M phosphate buffer, pH 7.0 containing no inhibitor (control), or inhibitor to a final concentration of 1mM. Inhibitors used were prepared as 100mM stock solutions in water except for 4-hydroxymercuribenzoate (4HMB) and pepstatin which were dissolved in methanol. Inhibitors tested were dithiothreitol (DTT); L-cysteine; reduced glutathione; 4HMB; N-ethylmaleimide; EDTA; 1,10 phenanthroline and pepstatin and were all purchased from Sigma. After preincubation 20µl azocasein (5mg/ml in sterile distilled water; Sigma) was added and the reaction mixtures incubated overnight at 37°C. Parallel blanks containing sterile water instead of H-gal-GP were included for each inhibitor tested and assays were performed in duplicate. The reactions were stopped by addition of an equal volume of 1M perchloric acid (BDH chemicals) and retained on ice for 15min to precipitate undigested protein which was subsequently pelleted by brief centrifugation at 11000g using a microfuge. The 0D₄₀₅ of the supernatant was determined using a "Monarch" microcentrifugal analyser (Instrumentation Laboratory, Warrington, UK). After subtraction of the appropriate reagent blank the degree of inhibition was expressed as the percent activity remaining compared to the control reaction.

Assay [2] deals with H-gal-GP. Put plainly: Inhibitor sensitivity of protease activity. It is filed as biochemical, H. contortus. Conditions: peanut lectin purified H-gal-GP; means of 4 separate observations. Here is the method:
The optimum pH for this activity was determined over the pH range 4 to 9 using overlapping 0.1M acetate, phosphate or Tris buffers (Fig. 8). Optimal activity was found between pH 4.5 and 6.5. ii) Inhibitor sensitivity The inhibitor sensitivity of the proteinase activity was tested with 4 separate preparations of peanut lectin purified H-gal-GP. […]

Another assay relates to Oo-gal-GP. Put plainly: Inhibitor sensitivity of protease activity. It is filed as biochemical, O.ostertagi. To be noted: means of 2 observations.
Another assay has as its system Oc-gal-GP. Put plainly: Inhibitor sensitivity of protease activity. It is filed as biochemical, O.circumcincta. To be noted: means of 2 observations.
Assay [3] deals with extracts of adult T.vitrinus. Put plainly: Proteolytic activity of worm extracts in the presence of pepstatin. It is filed as biochemical. The source says:
Proteolytic activity in extracts of adult T.vitrinus was reduced by 40% in the presence of pepstatin. […] These observations indicate that T.vitrinus also contains aspartyl proteinase activity similar to Haemonchus and Ostertagia spp.

Assay [4] has as its target Haemonchus galactose-containing glycoprotein complex (H-gal-GP) (Haemonchus contortus). Put plainly: cell-based or functional assay.
Assay [5] has as its target Ostertagia ostertagi galactose-containing glycoprotein complex (Oo-gal-GP) (Ostertagia ostertagi). Description: cell-based or functional assay.
The target in assay [6] is Ostertagia circumcincta galactose containing glycoprotein complex (Oc-gal-GP) (Ostertagia circumcincta). Description: cell-based or functional assay.
Setting [7] is: first analysis, 0.1M phosphate buffer.
[8] abbreviates: second analysis, same batch of H-gal-GP.

Values joined by “and” are separate entries in the source; they are usually repeats but may differ in a detail not shown here. Equal entries are not always repeated. Square brackets hold non-standard residues; d marks the D form. Peptide text beside a SMILES is read from it. * marks the point of attachment. Sta = CC(C)C[C@H](N)[C@@H](O)CC(=O)O; Isovaleryl = CC(C)CC(=O)*

As to `O[C@H](CS)[C@H](O)CS` (racemic) [Dithiothreitol, dithiothreitol], the “% activity remaining” value in the assay with H-gal-GP [1] (setting [7]) is on record as 48%; in the assay with H-gal-GP [1] (setting [8]), 44%.
In the case of `c1cnc2c(c1)ccc1cccnc12` [1, 10 Phenanthroline, 1,10 phenanthroline], the figures for the “percent activity remaining in the presence of inhibitor” value with H-gal-GP [2], in the assay with Oo-gal-GP and in the assay with Oc-gal-GP were 97%, 99% and 94%, respectively. Further, the “% activity remaining” value in the assay on H-gal-GP [1] (setting [7]) is 26%; in the assay with H-gal-GP [1] (setting [8]) it was 23%.
For `O=C([O-])c1cc[c]([Hg][OH])cc1` [4-hydroxymercuribenzoate], the results for the “% activity remaining” value in the assay on H-gal-GP [1] (setting [7]) and in the assay on H-gal-GP [1] (setting [8]) were 88% and 91%, respectively.
Take `N[C@@H](CS)C(=O)O` [Cysteine, L-cysteine]: the “% activity remaining” value in the assay with H-gal-GP [1] (setting [8]) is given as 0%.
With `CC(C)C[C@H](NC(=O)[C@H]1O[C@@H]1C(=O)O)C(=O)NCCCCN=C(N)N` [E64], the “percent activity remaining in the presence of inhibitor” value in the assay on H-gal-GP [2] stood at 87.8%; with Oo-gal-GP, 101%; with Oc-gal-GP, 101%.
On to `O=C(O)CN(CCN(CC(=O)O)CC(=O)O)CC(=O)O` [EDTA], for which the “percent activity remaining in the presence of inhibitor” value in the assay with H-gal-GP [2] came to 97.8%. The “% activity remaining” value came to 25% with H-gal-GP [1] (setting [7]) and 10% in the assay with H-gal-GP [1] (setting [8]).
For the compound `N[C@@H](CCC(=O)N[C@@H](CS)C(=O)NCC(=O)O)C(=O)O` [Glutathione, reduced glutathione], the results for the “% activity remaining” value in the assay on H-gal-GP [1] (setting [7]) and in the assay on H-gal-GP [1] (setting [8]) were 87% and 85%, respectively.
Taken in the same sequence, the figures for `CCN1C(=O)C=CC1=O` [N-ethylmaleimide] were 74% and 77%.
`O=S(=O)(F)Cc1ccccc1` [PMSF]: the “percent activity remaining in the presence of inhibitor” value in the assay with H-gal-GP [2] stood at 100%; with Oo-gal-GP, 84%; in the assay with Oc-gal-GP, 104%.
For the compound `CC(C)CC(=O)N[C@H](C(=O)N[C@H](C(=O)N[C@@H](CC(C)C)[C@@H](O)CC(=O)N[C@@H](C)C(=O)N[C@@H](CC(C)C)[C@@H](O)CC(=O)O)C(C)C)C(C)C` [Pepstatin, pepstatin] (Isovaleryl-VV[Sta]A[Sta]-OH), the “percent activity remaining in the presence of inhibitor” value came to 8.5% with H-gal-GP [2], 0% in the assay on Oo-gal-GP and 23% with Oc-gal-GP. The entries for the “% activity remaining” value in the assay with H-gal-GP [1] (setting [7]) and in the assay on H-gal-GP [1] (setting [8]) were 75% and 85%, respectively. Further, the Proteolytic activity reduced in assay [3] worked out at 40%.
Take “Serum of control lamb (injected with adjuvant only) (antibody)”: in assay [4], the % Inhibition of Proteolysis (Assay 1) was found to be 0% and the % Inhibition of Proteolysis (Assay 2) was determined as 2%.
As to pepstatin (peptide), the percent activity remaining in the presence of inhibitor in assay [5] came out at 0%; in assay [4] it was 8.5%; in assay [6], 23%. In assay [4], the % activity remaining (azocasein proteolysis at pH7) is 75% and 85%.
